Tests used:
Assay in all cases: relative viability (nuclei count vs DMSO), 5 days (fraction); higher = more cells survive
[1] = compound: Cc1ccc2nc(NCCN)c3ncc(C)n3c2c1 + CS(=O)(=O)CCNCc1ccc(-c2ccc3ncnc(Nc4ccc(OCc5cccc(F)c5)c(Cl)c4)c3c2)o1 [Lapatinib] (partner 2 µM)
Outline: (§1)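 Each reported value is a median over duplicate plates. It expresses relative viability: treated-well nuclei count divided by vehicle-well nuclei count. Lung cancer cell lines in 1536-well plates were dosed by pin tool a day after seeding, alone with one drug or with a fixed anchor-drug dose plus five library-drug doses (not always all listed) in √10 steps, and nuclei were counted after 5 days.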

Salubrinal + Palbociclib = compound: O=C(/C=C/c1ccccc1)NC(NC(=S)Nc1cccc2cccnc12)C(Cl)(Cl)Cl [Salubrinal] + CC(=O)c1c(C)c2cnc(Nc3ccc(N4CCNCC4)cn3)nc2n(C2CCCC2)c1=O [Palbociclib] (partner 0.5 µM)
Outline: as §1

Salubrinal + Luminespib = compound: O=C(/C=C/c1ccccc1)NC(NC(=S)Nc1cccc2cccnc12)C(Cl)(Cl)Cl [Salubrinal] + CCNC(=O)c1noc(-c2cc(C(C)C)c(O)cc2O)c1-c1ccc(CN2CCOCC2)cc1 [Luminespib] (partner 0.01 µM)
Outline: as §1

Salubrinal + Phenformin = compound: O=C(/C=C/c1ccccc1)NC(NC(=S)Nc1cccc2cccnc12)C(Cl)(Cl)Cl [Salubrinal] + N=C(N)NC(=N)NCCc1ccccc1 [Phenformin] (partner 250 µM)
Outline: as §1

| Cell Line | relative viability ([1]; first compound 0.04 µM) | relative viability ([1]; first compound 0.1265 µM) | relative viability ([1]; first compound 0.4 µM) | relative viability ([1]; first compound 1.265 µM) | relative viability ([1]; first compound 4 µM) | relative viability (Salubrinal + Palbociclib; first compound 0.08 µM) | relative viability (Salubrinal + Palbociclib; first compound 0.253 µM) | relative viability (Salubrinal + Palbociclib; first compound 0.8 µM) | relative viability (Salubrinal + Palbociclib; first compound 2.53 µM) | relative viability (Salubrinal + Palbociclib; first compound 8 µM) | relative viability (Salubrinal + Luminespib; first compound 0.08 µM) | relative viability (Salubrinal + Luminespib; first compound 0.253 µM) | relative viability (Salubrinal + Luminespib; first compound 0.8 µM) | relative viability (Salubrinal + Luminespib; first compound 2.53 µM) | relative viability (Salubrinal + Luminespib; first compound 8 µM) | relative viability (Salubrinal + Phenformin; first compound 0.08 µM) | relative viability (Salubrinal + Phenformin; first compound 0.253 µM) | relative viability (Salubrinal + Phenformin; first compound 0.8 µM) | relative viability (Salubrinal + Phenformin; first compound 2.53 µM) | relative viability (Salubrinal + Phenformin; first compound 8 µM) |
| --- | --- | --- | --- | --- | --- | --- | --- | --- | --- | --- | --- | --- | --- | --- | --- | --- | --- | --- | --- | --- |
| 201T | 1.07 | 1.03 | 0.989 | 1.17 | 0.98 | 0.355 | 0.332 | 0.413 | 0.351 | 0.374 | 1.06 | 1.05 | 1.11 | 1.09 | 1.07 | 0.44 | 0.32 | 0.508 | 0.462 | 0.456 |
| A549 | 1.23 | 0.941 | 0.918 | 1 | 0.83 | – | – | – | – | – | – | – | – | – | – | 0.174 | 0.143 | 0.175 | 0.119 | 0.17 |
| A-427 | 1.13 | 1.06 | 1.02 | 0.957 | 1.06 | 0.57 | 0.527 | 0.562 | 0.502 | 0.538 | 1.04 | 0.696 | 1.07 | 0.8 | 1.2 | 0.326 | 0.336 | 0.382 | 0.292 | 0.28 |
| ABC-1 | 1.18 | 1.16 | 1.12 | 0.783 | 1.03 | 0.692 | 0.576 | 0.836 | 0.547 | 0.664 | 0.559 | – | 0.8 | 0.473 | 0.728 | 0.225 | 0.268 | 0.281 | 0.214 | 0.24 |
| BEN | 0.894 | 0.6 | 0.827 | 0.77 | 0.709 | 0.453 | 0.444 | 0.484 | 0.457 | 0.463 | 0.53 | 0.323 | 0.425 | 0.354 | 0.265 | 0.269 | 0.259 | 0.432 | 0.273 | 0.249 |
| CAL-12T | 0.892 | 0.714 | 0.674 | 0.553 | 0.502 | 0.459 | 0.42 | 0.676 | 0.436 | 0.328 | 0.393 | 0.224 | 0.428 | 0.449 | 0.518 | 0.627 | 0.485 | 0.613 | 0.578 | 0.438 |
| COR-L23 | 1.27 | 0.874 | 0.924 | 0.837 | 0.853 | 0.356 | 0.31 | 0.312 | 0.331 | 0.208 | 0.933 | 0.612 | 0.587 | 0.773 | 0.728 | 0.526 | 0.359 | 0.458 | 0.422 | 0.433 |
| COR-L 105 | 0.451 | 0.351 | 0.352 | 0.399 | 0.339 | 0.311 | 0.405 | 0.364 | 0.408 | 0.385 | 0.7 | 0.699 | 0.761 | 0.812 | 0.738 | 0.556 | 0.479 | 0.452 | 0.511 | 0.42 |
| Calu-6 | 1.09 | 1.03 | 1.07 | 1.07 | 0.737 | – | – | – | – | – | – | – | – | – | – | – | – | – | – | – |
| ChaGo-K-1 | – | – | – | – | – | 1.02 | 0.756 | 0.954 | 0.938 | 0.837 | 0.633 | 0.581 | 0.604 | 0.437 | 0.588 | 0.506 | 0.461 | 0.535 | 0.455 | 0.45 |

From the supplement of paper PMC10307832
